Source: US20260102415A1, “COMPOSITIONS COMPRISING PRODRUGS OF HYDROXAMATE-BASED COMPOUNDS AND METHODS OF MAKING AND USING SAME” (Duke University, priority 2022, published 2026)
≈ marks a conversion by molar mass, not a printed value.

Assays:
[1] = Maximum solubility in 5% Captisol by UV-Vis spectroscopy; format: physicochemical; conditions: aqueous with cosolvent or surfactant or cyclodextrin, thermodynamic from solid, absorption at 290 nm, triplicate, averaged
Procedure: Maximum solubility of LPC233-phosphate-ProDrug was determined using UV-Vis spectroscopy. First, a sample of LPC-233-Phos-Pro in 5% Captisol was prepared at 1 mg/mL by dissolving 0.7 mg of compound in 700 μL of 5% Captisol and sonicating for 30 minutes. The sample was then serial diluted 2-fold to generate standard solutions ranging from 0.0625-1 mg/mL. The absorption of each sample at 290 nm was determined via nanodrop, and the values were plotted to generate a linear standard curve of y=3.0336x+0.09 with r^2=0.998 (v=Abs290 nm, x=[drug]mg/mL). Next, a sample of LPC-233-Phos-Pro was prepared based on an assumed concentration of 300 mg/mL in 5% Captisol and allowed to sonicate for 45 minutes. The sample was then vortexed and centrifuged to pellet any undissolved compound. The supernatant was removed and diluted an initial 30× to a theoretical max concentration of 10 mg/mL. From here, the solution was serial diluted 2-fold up to 256×. The absorption of each dilution at 290 nm was measured via nanodrop and values were plotted to the standard curve. These preparations and measurements were performed in triplicate and averaged. The final maximum solubility of LPC-233-Phos-Pro in 5% Captisol was determined to be ˜260±6 mg/mL. […]

[2] = system: Acinetobacter baumannii (ATCC 19606); assay: Acinetobacter baumannii sepsis model in mice (survival); format: in vivo; conditions: CD-1 mice; for overall survival: separate experiment comparing prodrug with parent compound; for mice surviving during treatment and post-treatment observation periods: dose response study
Procedure: A mice model was created to test the efficacy of LPC-233-Phos-Pro in an Acinetobacter baumannii sepsis model.
Method: Overnight culture of A. baumannii 19606 was inoculated into 50 mL fresh LB with 1:100 dilution. The culture was incubated at 37° C. with vigorous shaking until OD600 reached ˜0.5. The bacteria were harvested, washed, and re-suspended in PBS pH 7.4 buffer. Each CD-1 mouse at the age of 6-7 weeks was injected with about […] Acinetobacter baumannii (ATCC 19606) in a volume of 200 μL intraperitoneally. There were ten mice in each group (five male and five female). About 2 hours post infection, 200 μL of vehicle (5% Captisol dissolved in saline), or LPC-233-Phos-Pro in 5% Captisol at specified concentrations were injected intraperitoneally. 12 hours later, 200 μL of vehicle control or LPC-233-Phos-Pro solutions at desired concentrations were administrated via intraperitoneal injections every 12 hours (Q12H) for a total of ten IP injections. The mice were monitored for an additional 10 days and the percentages of survival were recorded. The same procedure was used in a separate experiment to compare the efficacy of LPC-233 and LPC-233-Phos-Pro.

[3] = Vehicle (Captisol or beta-cyclodextrin) concentration needed to formulate the 100 mg/kg dose; format: physicochemical; conditions: dose level 100 mg/kg
Procedure: LPC-233 required 30-40% Captisol or beta-cyclodextrin to reach the dose level of 100 mg/kg and beyond. These concentrations of vehicle caused vehicle-related side effects and cannot be used in clinical formulations.

[4] = Maximum Tolerated 5-day Repeat dose in male CD-1 mice; format: in vivo; conditions: 250 mg/kg/Q12H (500 mg/kg/day) IP over 5 days, 5% Captisol
Procedure: Additionally, the Maximum Tolerated 5-day Repeat dose of LPC-233-Phos-Pro was tested in male CD-1 mice (n=3). LPC-233-Phos-Pro was prepared in 5% Captisol and 200 μL of solution was administered via IP injection every 12 hours (Q12H) at doses of 250 mg/kg/Q12H (500 mg/kg/day) over the course of 5 days. The mice were weighed daily to monitor animal survival and weight loss.

Row | Structure (SMILES) | solubility at 45 min [1] [mg/mL] | overall survival ([2]; 100 mg/kg Q12H IP) [%] | Captisol or beta-cyclodextrin concentration required to reach the dose level of 100 mg/kg [3] | mice surviving during treatment and post-treatment observation periods ([2]; 30 mg/kg Q12H IP) [%] | mice surviving during treatment and post-treatment observation periods ([2]; 100 mg/kg Q12H IP) | fitted ED50 (survival) ([2]; IP infection with A. baumannii 19606, IP dosing Q12H, ten injections, in 5% Captisol, dose response study 10, 30, 100 mg/kg) [mg/kg Q12H] | animal survival [4] | weight loss [4]
1 | C[C@@](O)(C(F)F)[C@H](NC(=O)c1ccc(C#CC#CC2CC2)cc1)C(=O)NO [LPC-233, reference compound] | ~20 (≈ 53.1 mM) | 70 | 30-40% |  |  |  |  | 
2 | C[C@@](O)(C(F)F)[C@H](NC(=O)c1ccc(C#CC#CC2CC2)cc1)C(=O)NOP(=O)([O-])[O-].[Na+].[Na+] [LPC-233-Phos-Pro] | ~260 | 100 | 5% | 90 | all mice | 5.5 | All mice survived | < 10 % of initial body weight
